In US10479786B2, “Protein kinase inhibitors” (Princeton Drug Discovery Inc, priority 2016, dated 2019):

What was measured:
[1] = system: battery of selected protein kinases; experiment: In vitro screen of a battery of selected protein kinases (summary statement); assay type: biochemical; details: BTK, BMX, ABL, ABL(E255K), SRC, ACK, ARG, BLK, DDR2, EPHA, FGR, FMS, FRK, FYN, HCK, LCK, LYN, PDGFRα, PDGFRβ, YES, PIK3CA/PIK3R1, among others
LYNa = target: T1, LYNa (Homo sapiens, UniProt P07948); experiment: Off-chip Mobility Shift Assay, kinase inhibition; assay type: biochemical; details: recombinant LYNa; for inhibition at 0.001 µM: at 1 nM; for inhibition at 0.01 µM: at 10 nM, read-out: inhibition
T1 construct: purchased Carna Biosciences, Inc

[2] = Metabolic stability in human liver microsomes; assay type: in vitro ADME; details: for metabolic stability compared to dasatinib: human liver microsomes; for In vitro t1/2: 1 μM, human liver microsomes 0.5 mg/mL, NADPH and UDPGA, 37° C.
Protocol: FIG. 1. Metabolic stability of compounds in human liver microsomal incubations. […] Concentrations at specified times were determined by LC-MS/MS.
The incubation reactions at various time points were quenched by adding 2× volumes of acetonitrile containing 100 nM reserpine. The quenched incubation samples were centrifuged at 4000 RPM for 10 min, and the supernatants injected for LC/MS/MS analysis. LC/MS/MS analysis was carried out on a AB Sciex 4000 Q Trap LC/MS/MS system coupled with Shimadzu Prominence UFLCXR 20 series (including a CBM-20A controller, two LC-20ADXR solvent delivery units, SIL-20AC HT autosampler, CTO-20A column oven, and a SPD-20A UV detector).

ACK = target: T2, ACK (Homo sapiens, UniProt Q07912); experiment: Off-chip Mobility Shift Assay, kinase inhibition; assay type: biochemical; details: at 10 nM; recombinant ACK
T2 construct: purchased Carna Biosciences, Inc

ABL = target: T3, ABL (Homo sapiens, UniProt P00519); experiment: Off-chip Mobility Shift Assay, kinase inhibition; assay type: biochemical; details: recombinant ABL; for inhibition at 0.001 µM: at 1 nM; for inhibition at 0.01 µM: at 10 nM
T3 construct: purchased Carna Biosciences, Inc

PDGFRα = target: T4, PDGFRα (Homo sapiens, UniProt P16234); experiment: Off-chip Mobility Shift Assay, kinase inhibition; assay type: biochemical; details: at 10 nM; recombinant PDGFRα; read-out: inhibition
T4 construct: purchased Carna Biosciences, Inc

BMX = target: T5, BMX (Homo sapiens, UniProt P51813); experiment: Off-chip Mobility Shift Assay, kinase inhibition; assay type: biochemical; details: recombinant BMX; for inhibition at 0.001 µM: at 1 nM; for inhibition at 0.01 µM: at 10 nM
T5 construct: purchased Carna Biosciences, Inc
T5 sequence (P51813 1-675): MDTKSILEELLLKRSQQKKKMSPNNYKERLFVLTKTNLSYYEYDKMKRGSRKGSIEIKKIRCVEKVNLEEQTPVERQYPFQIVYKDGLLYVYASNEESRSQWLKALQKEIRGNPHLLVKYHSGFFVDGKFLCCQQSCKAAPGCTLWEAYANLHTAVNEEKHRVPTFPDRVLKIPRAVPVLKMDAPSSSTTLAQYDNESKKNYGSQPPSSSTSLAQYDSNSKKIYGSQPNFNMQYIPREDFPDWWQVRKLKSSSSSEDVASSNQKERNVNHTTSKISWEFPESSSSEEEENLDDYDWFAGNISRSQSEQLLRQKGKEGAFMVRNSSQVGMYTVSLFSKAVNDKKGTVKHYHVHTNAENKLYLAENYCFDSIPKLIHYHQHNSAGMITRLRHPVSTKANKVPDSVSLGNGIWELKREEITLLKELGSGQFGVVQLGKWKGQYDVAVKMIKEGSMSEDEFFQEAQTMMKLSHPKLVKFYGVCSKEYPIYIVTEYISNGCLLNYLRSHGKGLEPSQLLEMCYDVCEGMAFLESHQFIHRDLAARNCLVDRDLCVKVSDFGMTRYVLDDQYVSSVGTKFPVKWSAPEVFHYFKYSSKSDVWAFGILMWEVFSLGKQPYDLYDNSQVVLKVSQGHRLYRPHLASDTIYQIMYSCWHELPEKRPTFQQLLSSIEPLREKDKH

YES = target: T6, YES (Homo sapiens, UniProt P07947); experiment: Off-chip Mobility Shift Assay, kinase inhibition; assay type: biochemical; details: recombinant YES; for inhibition at 0.001 µM: at 1 nM; for inhibition at 0.01 µM: at 10 nM
T6 construct: purchased Carna Biosciences, Inc

TEC = target: T7, TEC (Homo sapiens, UniProt P42680); experiment: Off-chip Mobility Shift Assay, kinase inhibition; assay type: biochemical; details: at 1 nM; recombinant TEC
T7 construct: purchased Carna Biosciences, Inc
T7 sequence (P42680 1-631): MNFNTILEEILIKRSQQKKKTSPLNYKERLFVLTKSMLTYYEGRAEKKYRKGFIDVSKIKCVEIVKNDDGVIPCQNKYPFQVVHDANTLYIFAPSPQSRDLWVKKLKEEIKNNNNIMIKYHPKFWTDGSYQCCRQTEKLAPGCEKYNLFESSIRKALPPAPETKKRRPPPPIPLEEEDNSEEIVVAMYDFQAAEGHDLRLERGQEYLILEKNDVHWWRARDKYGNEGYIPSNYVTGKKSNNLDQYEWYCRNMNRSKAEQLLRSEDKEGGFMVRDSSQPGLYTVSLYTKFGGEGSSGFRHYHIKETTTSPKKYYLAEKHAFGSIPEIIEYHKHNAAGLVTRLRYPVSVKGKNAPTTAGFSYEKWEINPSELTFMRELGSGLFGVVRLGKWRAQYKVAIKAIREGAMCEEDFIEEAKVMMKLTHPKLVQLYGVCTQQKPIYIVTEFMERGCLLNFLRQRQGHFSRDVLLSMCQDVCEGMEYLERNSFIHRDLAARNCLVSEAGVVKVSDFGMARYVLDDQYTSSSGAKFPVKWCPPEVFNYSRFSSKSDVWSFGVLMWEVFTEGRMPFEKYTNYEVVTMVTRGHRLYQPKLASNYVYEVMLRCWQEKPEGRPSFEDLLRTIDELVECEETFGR

Mino = experiment: Cell inhibition assay (PrestoBlue, 48 h); assay type: cell-based; details: Homo sapiens, Mino cells, read-out: IC50, inhibition of growth
BLK = target: T8, BLK (Homo sapiens, UniProt P51451); experiment: Off-chip Mobility Shift Assay, kinase inhibition; assay type: biochemical; details: at 10 nM; recombinant BLK
T8 construct: purchased Carna Biosciences, Inc
T8 sequence (P51451 whole entry): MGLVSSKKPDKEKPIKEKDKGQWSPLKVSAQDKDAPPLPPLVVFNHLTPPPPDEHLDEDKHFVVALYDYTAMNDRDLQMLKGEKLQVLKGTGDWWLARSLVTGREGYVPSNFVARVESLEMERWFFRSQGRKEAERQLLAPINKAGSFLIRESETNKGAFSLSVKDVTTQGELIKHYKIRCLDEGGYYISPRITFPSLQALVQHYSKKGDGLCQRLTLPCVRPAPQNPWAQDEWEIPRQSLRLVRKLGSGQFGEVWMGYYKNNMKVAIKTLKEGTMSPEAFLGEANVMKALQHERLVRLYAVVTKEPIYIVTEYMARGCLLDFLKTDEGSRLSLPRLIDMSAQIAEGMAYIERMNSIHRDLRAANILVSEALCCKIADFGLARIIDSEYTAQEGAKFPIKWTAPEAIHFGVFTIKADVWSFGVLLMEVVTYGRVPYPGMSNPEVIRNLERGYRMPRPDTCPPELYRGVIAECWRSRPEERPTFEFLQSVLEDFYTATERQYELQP

T2 sequence (Q07912 whole entry): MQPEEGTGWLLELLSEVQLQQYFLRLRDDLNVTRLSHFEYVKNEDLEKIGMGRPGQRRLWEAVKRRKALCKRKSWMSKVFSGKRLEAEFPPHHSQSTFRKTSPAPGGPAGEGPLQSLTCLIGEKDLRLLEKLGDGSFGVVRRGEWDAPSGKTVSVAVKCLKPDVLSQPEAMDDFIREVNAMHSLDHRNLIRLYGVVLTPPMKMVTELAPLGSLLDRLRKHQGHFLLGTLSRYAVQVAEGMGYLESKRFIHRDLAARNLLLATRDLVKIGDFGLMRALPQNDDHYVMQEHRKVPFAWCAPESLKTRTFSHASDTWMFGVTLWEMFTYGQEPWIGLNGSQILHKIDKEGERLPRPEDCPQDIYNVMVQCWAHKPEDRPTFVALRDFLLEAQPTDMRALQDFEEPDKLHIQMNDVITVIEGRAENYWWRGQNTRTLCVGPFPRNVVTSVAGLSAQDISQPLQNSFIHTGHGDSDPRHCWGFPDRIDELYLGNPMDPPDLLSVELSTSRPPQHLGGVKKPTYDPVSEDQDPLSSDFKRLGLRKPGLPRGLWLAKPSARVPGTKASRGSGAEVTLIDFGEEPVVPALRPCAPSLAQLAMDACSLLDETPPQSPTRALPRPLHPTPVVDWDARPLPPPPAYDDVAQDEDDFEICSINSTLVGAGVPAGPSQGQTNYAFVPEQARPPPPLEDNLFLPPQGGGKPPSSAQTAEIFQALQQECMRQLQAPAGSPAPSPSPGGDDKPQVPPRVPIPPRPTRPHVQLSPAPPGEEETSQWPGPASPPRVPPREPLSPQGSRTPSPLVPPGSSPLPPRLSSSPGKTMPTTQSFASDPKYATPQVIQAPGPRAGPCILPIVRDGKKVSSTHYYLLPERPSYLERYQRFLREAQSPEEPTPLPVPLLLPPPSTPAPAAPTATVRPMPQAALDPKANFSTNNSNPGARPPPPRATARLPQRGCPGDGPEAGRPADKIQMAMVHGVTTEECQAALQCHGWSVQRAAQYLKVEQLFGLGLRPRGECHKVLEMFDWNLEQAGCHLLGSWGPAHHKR
T1 sequence (P07948 whole entry): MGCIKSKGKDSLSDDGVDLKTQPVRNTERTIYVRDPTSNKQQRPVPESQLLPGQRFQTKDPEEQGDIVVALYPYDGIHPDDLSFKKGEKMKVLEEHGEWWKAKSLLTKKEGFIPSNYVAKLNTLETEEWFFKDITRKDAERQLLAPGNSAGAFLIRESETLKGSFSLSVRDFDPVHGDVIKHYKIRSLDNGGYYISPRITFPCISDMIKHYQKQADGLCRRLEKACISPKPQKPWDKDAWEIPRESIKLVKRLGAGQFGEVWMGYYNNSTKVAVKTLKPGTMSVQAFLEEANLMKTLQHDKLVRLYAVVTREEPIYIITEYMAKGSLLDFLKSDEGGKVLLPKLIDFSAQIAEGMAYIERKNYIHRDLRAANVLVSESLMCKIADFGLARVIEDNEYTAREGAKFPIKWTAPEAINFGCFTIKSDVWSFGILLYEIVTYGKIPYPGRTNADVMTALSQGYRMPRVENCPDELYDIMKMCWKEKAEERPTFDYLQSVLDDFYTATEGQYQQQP
T4 sequence (P16234 24-1089): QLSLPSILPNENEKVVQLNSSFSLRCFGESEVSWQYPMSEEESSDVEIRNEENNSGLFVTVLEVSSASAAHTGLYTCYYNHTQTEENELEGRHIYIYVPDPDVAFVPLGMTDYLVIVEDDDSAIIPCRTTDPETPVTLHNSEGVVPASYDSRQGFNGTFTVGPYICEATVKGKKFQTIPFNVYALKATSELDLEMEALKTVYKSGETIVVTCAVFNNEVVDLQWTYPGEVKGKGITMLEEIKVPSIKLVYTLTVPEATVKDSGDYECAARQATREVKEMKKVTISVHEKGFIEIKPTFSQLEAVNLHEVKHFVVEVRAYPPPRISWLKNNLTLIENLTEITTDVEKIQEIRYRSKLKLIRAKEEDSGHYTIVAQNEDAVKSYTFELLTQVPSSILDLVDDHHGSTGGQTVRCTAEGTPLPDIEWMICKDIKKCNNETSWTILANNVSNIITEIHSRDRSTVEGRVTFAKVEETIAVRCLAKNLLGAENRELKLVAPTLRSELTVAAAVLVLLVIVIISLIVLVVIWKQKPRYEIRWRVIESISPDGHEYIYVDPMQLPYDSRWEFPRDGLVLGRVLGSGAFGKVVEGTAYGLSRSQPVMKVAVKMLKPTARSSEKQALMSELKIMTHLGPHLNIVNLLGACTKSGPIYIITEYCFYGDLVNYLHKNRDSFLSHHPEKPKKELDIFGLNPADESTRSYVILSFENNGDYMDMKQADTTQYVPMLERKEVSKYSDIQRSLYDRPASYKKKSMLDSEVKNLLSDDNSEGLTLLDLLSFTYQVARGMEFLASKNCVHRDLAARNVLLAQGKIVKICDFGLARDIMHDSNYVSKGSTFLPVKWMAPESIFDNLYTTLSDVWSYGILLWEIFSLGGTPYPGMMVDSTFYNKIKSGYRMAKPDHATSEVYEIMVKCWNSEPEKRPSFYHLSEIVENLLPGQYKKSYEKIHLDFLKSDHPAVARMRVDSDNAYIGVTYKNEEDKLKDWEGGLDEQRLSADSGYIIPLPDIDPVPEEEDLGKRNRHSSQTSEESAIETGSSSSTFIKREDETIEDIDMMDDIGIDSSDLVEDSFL
T6 sequence (P07947 whole entry): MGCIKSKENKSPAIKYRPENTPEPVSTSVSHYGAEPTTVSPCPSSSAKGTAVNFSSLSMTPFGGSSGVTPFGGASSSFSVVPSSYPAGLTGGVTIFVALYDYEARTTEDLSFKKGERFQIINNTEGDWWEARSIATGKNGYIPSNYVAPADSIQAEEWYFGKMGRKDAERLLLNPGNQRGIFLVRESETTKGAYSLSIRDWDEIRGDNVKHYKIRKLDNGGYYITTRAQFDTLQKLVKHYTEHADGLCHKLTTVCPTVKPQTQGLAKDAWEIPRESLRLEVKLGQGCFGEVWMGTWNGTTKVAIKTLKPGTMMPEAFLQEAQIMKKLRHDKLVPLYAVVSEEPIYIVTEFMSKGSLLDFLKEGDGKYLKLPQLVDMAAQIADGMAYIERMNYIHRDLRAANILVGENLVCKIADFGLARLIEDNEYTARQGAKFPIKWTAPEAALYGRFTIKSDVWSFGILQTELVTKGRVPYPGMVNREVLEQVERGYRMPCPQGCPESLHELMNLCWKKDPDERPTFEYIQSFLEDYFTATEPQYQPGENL
T3 sequence (P00519 whole entry): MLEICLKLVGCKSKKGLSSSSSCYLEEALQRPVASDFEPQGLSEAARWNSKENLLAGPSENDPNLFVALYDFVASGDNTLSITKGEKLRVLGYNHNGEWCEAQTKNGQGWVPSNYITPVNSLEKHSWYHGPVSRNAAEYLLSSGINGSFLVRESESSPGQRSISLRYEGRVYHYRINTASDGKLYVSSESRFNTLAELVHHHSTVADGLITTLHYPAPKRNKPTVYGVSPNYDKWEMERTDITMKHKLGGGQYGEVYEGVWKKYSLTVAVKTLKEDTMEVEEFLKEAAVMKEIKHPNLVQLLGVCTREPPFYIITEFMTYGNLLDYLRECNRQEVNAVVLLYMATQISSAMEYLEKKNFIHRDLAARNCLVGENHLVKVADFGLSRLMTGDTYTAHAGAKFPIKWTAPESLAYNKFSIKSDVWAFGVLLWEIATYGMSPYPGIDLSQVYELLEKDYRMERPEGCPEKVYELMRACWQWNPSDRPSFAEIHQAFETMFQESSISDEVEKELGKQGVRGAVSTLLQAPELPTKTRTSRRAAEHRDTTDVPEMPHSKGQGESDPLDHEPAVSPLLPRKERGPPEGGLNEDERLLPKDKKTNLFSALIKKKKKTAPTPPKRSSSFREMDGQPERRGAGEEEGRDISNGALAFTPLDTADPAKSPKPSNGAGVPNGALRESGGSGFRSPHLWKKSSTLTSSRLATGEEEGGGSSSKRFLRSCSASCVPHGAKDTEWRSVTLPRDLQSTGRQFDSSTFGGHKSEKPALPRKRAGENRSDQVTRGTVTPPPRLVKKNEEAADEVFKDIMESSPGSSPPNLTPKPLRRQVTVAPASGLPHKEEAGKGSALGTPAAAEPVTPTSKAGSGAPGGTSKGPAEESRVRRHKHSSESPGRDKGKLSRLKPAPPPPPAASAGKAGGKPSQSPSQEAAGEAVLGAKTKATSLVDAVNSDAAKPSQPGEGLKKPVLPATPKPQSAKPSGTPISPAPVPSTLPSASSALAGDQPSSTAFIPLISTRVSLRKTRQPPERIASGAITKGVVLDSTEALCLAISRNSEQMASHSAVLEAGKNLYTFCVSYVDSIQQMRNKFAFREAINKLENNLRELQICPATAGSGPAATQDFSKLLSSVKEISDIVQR

| Structure (SMILES) | activity to inhibit kinases [1] | inhibition at 0.001 µM (LYNa) | inhibition at 0.01 µM (LYNa) | metabolic stability compared to dasatinib [2] | inhibition at 0.01 µM (ACK) | inhibition at 0.001 µM (ABL) | inhibition at 0.01 µM (ABL) | inhibition at 0.01 µM (PDGFRα) | inhibition at 0.001 µM (BMX) | inhibition at 0.01 µM (BMX) | inhibition at 0.001 µM (YES) | inhibition at 0.01 µM (YES) | inhibition at 0.001 µM (TEC) | IC50 (Mino) | inhibition at 0.01 µM (BLK) | In vitro t1/2 [2] |
| --- | --- | --- | --- | --- | --- | --- | --- | --- | --- | --- | --- | --- | --- | --- | --- | --- |
| Cc1nc(Nc2ncc(C(=O)Nc3c(C)cccc3Cl)s2)cc(N2CCCCC2)n1 [Compound VIII, N-(2-chloro-6-methylphenyl)-2-[[2-methyl-6-(piperidin-1-yl)pyrimidin-4-yl]amino]thiazole-5-carboxamide] | potent activity | > 50% | > 50% | significantly greater stability | > 50% | > 50% | > 50% | > 50% | > 50% | > 50% | > 50% | > 50% | > 50% | < 50 nM | > 50% |  |
| Cc1nc(Nc2ncc(C(=O)Nc3c(C)cccc3Cl)s2)cc(N2CC[C@H](O)C2)n1 [Compound X, N-(2-chloro-6-methylphenyl)-2-[[2-methyl-6-((S)-3-hydroxypyrrolidin-1-yl)pyrimidin-4-yl]amino]thiazole-5-carboxamide] | potent activity | > 50% | > 50% | significantly greater stability | > 50% | > 50% | > 50% | > 50% | > 50% | > 50% | > 50% | > 50% | > 50% | < 50 nM | > 50% | 87 min |
| Cc1nc(Nc2ncc(C(=O)Nc3c(C)cccc3Cl)s2)cc(N2CC[C@@H](O)C2)n1 [Compound XI, N-(2-chloro-6-methylphenyl)-2-[[2-methyl-6-((R)-3-hydroxypyrrolidin-1-yl)pyrimidin-4-yl]amino]thiazole-5-carboxamide] | potent activity | > 50% | > 50% | significantly greater stability | > 50% | > 50% | > 50% | > 50% | > 50% | > 50% | > 50% | > 50% | > 50% | < 50 nM | > 50% | 59 min |
| Cc1nc(Nc2ncc(C(=O)Nc3c(C)cccc3Cl)s2)cc(N2CC[C@H](N)C2)n1 [Compound XII, N-(2-chloro-6-methylphenyl)-2-[[2-methyl-6-((S)-3-aminopyrrolidin-1-yl)pyrimidin-4-yl]amino]thiazole-5-carboxamide] | potent activity | > 50% | > 50% | significantly greater stability | > 50% | > 50% | > 50% | > 50% | > 50% | > 50% | > 50% | > 50% | > 50% | < 50 nM | > 50% |  |
| Cc1nc(Nc2ncc(C(=O)Nc3c(C)cccc3Cl)s2)cc(N2CC[C@@H](N)C2)n1 [Compound XIII, N-(2-chloro-6-methylphenyl)-2-[[2-methyl-6-((R)-3-aminopyrrolidin-1-yl)pyrimidin-4-yl]amino]thiazole-5-carboxamide] | potent activity | > 50% | > 50% | significantly greater stability | > 50% | > 50% | > 50% | > 50% | > 50% | > 50% | > 50% | > 50% | > 50% | < 50 nM | > 50% |  |
